In brackets after ≈: the same amount, converted by molar mass.

This is an account of results in ChEMBL document CHEMBL2434881, “Design and evaluation of novel 8-oxo-pyridopyrimidine Jak1/2 inhibitors” (Bioorg Med Chem Lett, 2013).

Series [1] can be described thus: Aqueous kinetic solubility of the compound in PBS buffer at pH 7.4. Type of series: physicochemical. As to conditions: read-out: Kinetic_solubility.
The nature of series [2]: Apparent permeability of the compound from apical to basolateral side of MDCK cells. As to conditions: dog. Type of series: ADME, cell-based, Canis lupus familiaris.

Take `O=c1[nH]ccc2c(NC3CCCCC3)ncnc12`: the solubility kinetic in series [1] is 225 µM (≈ 55 µg/mL).

What is called Papp A→B is the apparent permeability from the apical to the basolateral side of a cell layer. For `O=c1[nH]ccc2c(NC3CCCC3)ncnc12`, in series [1], the solubility kinetic was determined as 318 µM (≈ 73.2 µg/mL). The Papp A→B in series [2] is 2.5 ×10⁻⁶ cm/s.

As to `CNc1nc(N[C@@H]2CCC[C@@H]2C#N)c2cc[nH]c(=O)c2n1` (racemic), in series [1], the solubility kinetic came to 74 µM (≈ 21 µg/mL).

Turning to `N#C[C@H]1CCC[C@H]1Nc1nc(N2CCCCC2)nc2c(=O)[nH]ccc12` (racemic), the solubility kinetic in series [1] was determined as 8.6 µM (≈ 2.91 µg/mL).

As to `N#C[C@H]1CCC[C@H]1Nc1nc(N2CCOCC2)nc2c(=O)[nH]ccc12` (racemic), the solubility kinetic in series [1] was found to be 51 µM (≈ 17.4 µg/mL).

As for `CN(CCO)c1nc(N[C@@H]2CCC[C@@H]2C#N)c2cc[nH]c(=O)c2n1` (racemic), the solubility kinetic in series [1] amounted to 19 µM (≈ 6.24 µg/mL).

On to `N#C[C@H]1CCC[C@H]1Nc1nc(-c2ccccc2)nc2c(=O)[nH]ccc12` (racemic), for which the solubility kinetic in series [1] stood at 11 µM (≈ 3.65 µg/mL).

On to `N#C[C@H]1CCC[C@H]1Nc1nc(-c2cn[nH]c2)nc2c(=O)[nH]ccc12` (racemic), for which, in series [1], the solubility kinetic was 24 µM (≈ 7.71 µg/mL). For the same molecule, the Papp A→B in series [2] worked out at 0.2 ×10⁻⁶ cm/s.

As for `CCc1nc(N[C@@H]2CCC[C@@H]2C#N)c2cc[nH]c(=O)c2n1` (racemic), the solubility kinetic in series [1] amounted to 140 µM (≈ 39.7 µg/mL). Also, the Papp A→B in series [2] turned out to be 0.6 ×10⁻⁶ cm/s.

Turning to `N#C[C@H]1CCC[C@H]1Nc1ncnc2c(=O)[nH]ccc12` (racemic), the solubility kinetic in series [1] stood at 104 µM (≈ 26.5 µg/mL).

Regarding `N#CC1CCCC1Nc1ncnc2c(=O)[nH]ccc12` (single isomer, unassigned; enantiomer 1), the solubility kinetic in series [1] came to 119 µM (≈ 30.4 µg/mL).
